Results reported in publication PMC10322970, “Modular synthesis of clickable peptides via late-stage maleimidation on C(7)-H tryptophan” (Nature Communications, 2023).

Experiments:
[1] = Rh(III)-catalysed intramolecular C(7)-H maleimidation of N-pivaloyl Trp (oxidative Heck-type C-C bond, indole C7 to maleimide CH): [RhCp*Cl2]2 10 mol%, AgNTf2 40 mol%, Ag2O 1.5 eq; conditions: DCM, 12.0 mM, 80.0 °C, 24.0 h
integrin αvβ3 = integrin αvβ3 (Homo sapiens, UniProt P05106+P06756); assay: SPR binding to immobilised integrin αvβ3; conditions: for kon: read-out: ka
integrin αvβ3, sequence (P06756 31-1048): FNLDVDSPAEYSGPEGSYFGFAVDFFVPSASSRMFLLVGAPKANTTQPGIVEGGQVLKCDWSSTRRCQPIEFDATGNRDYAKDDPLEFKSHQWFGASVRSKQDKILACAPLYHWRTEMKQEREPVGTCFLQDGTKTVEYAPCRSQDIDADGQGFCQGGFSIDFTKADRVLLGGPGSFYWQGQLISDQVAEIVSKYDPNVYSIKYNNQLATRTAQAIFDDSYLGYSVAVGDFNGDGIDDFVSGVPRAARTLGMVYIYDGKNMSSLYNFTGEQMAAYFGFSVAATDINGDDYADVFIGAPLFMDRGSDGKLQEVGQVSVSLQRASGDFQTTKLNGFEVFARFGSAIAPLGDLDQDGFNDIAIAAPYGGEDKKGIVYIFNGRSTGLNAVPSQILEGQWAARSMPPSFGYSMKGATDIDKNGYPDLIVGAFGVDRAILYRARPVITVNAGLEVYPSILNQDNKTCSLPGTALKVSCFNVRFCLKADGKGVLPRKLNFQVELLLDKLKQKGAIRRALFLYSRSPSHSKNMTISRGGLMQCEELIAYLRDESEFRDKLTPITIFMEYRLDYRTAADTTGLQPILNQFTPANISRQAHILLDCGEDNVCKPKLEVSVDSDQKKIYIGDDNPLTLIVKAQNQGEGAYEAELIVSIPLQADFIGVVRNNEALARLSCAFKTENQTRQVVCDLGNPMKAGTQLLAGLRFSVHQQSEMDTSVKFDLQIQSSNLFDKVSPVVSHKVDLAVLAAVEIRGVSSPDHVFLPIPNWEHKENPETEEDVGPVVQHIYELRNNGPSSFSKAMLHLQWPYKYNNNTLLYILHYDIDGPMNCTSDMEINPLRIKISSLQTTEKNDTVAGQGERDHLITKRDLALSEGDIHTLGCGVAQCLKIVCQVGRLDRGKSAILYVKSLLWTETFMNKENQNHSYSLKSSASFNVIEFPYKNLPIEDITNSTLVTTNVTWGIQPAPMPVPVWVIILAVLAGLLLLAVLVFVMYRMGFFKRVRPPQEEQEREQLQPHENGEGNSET
integrin αvβ3, sequence (P05106 27-788): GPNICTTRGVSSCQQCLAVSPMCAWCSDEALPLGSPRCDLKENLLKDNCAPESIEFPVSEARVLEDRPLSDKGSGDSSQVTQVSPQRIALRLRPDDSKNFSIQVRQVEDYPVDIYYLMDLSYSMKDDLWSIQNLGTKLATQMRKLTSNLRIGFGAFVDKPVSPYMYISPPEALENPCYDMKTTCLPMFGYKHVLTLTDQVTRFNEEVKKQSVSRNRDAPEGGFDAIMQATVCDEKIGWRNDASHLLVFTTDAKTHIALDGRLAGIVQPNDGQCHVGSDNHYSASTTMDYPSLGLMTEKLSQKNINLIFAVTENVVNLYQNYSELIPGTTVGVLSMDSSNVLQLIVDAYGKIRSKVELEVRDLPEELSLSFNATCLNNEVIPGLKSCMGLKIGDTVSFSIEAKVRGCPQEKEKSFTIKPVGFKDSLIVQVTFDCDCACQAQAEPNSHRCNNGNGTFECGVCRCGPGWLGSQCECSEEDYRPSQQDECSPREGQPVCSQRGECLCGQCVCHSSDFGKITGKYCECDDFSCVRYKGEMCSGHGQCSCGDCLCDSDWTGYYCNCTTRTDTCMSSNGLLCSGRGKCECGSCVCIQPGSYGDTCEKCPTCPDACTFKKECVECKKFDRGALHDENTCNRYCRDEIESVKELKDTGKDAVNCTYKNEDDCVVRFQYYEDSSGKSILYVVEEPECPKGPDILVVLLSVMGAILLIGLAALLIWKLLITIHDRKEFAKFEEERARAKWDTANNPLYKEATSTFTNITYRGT

integrin αvβ5 = integrin αvβ5 (Homo sapiens, UniProt P06756+P18084); assay: SPR binding to immobilised integrin αvβ5; conditions: for kon: read-out: ka
integrin αvβ5, sequence (P06756 31-1048): as the sequence (P06756 31-1048) above
integrin αvβ5, sequence (P18084 24-799): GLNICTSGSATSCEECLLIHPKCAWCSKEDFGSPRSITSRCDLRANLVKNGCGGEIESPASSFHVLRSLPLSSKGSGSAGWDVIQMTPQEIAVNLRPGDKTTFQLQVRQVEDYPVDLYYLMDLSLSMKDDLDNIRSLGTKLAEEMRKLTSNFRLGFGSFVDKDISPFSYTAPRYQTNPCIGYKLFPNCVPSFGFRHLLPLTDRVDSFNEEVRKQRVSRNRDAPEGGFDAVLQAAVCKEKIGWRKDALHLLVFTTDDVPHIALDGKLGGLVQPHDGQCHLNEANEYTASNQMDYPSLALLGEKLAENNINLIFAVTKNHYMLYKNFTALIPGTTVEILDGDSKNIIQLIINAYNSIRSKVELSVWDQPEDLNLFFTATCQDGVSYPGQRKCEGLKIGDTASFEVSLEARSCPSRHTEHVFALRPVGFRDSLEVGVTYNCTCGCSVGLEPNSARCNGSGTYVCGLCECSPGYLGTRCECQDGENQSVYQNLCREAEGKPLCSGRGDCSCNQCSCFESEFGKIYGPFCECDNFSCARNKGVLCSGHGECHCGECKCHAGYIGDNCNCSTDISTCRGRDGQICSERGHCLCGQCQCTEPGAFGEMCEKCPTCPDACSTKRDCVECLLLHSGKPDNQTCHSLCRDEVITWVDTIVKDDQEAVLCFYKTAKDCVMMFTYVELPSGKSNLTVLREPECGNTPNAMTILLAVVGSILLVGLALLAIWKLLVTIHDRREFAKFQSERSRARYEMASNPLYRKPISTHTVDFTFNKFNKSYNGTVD

integrin α5β1 = integrin α5β1 (Homo sapiens, UniProt P05556+P08648); assay: SPR binding to immobilised integrin α5β1; conditions: for kon: read-out: ka
integrin α5β1, sequence (P08648 42-1049): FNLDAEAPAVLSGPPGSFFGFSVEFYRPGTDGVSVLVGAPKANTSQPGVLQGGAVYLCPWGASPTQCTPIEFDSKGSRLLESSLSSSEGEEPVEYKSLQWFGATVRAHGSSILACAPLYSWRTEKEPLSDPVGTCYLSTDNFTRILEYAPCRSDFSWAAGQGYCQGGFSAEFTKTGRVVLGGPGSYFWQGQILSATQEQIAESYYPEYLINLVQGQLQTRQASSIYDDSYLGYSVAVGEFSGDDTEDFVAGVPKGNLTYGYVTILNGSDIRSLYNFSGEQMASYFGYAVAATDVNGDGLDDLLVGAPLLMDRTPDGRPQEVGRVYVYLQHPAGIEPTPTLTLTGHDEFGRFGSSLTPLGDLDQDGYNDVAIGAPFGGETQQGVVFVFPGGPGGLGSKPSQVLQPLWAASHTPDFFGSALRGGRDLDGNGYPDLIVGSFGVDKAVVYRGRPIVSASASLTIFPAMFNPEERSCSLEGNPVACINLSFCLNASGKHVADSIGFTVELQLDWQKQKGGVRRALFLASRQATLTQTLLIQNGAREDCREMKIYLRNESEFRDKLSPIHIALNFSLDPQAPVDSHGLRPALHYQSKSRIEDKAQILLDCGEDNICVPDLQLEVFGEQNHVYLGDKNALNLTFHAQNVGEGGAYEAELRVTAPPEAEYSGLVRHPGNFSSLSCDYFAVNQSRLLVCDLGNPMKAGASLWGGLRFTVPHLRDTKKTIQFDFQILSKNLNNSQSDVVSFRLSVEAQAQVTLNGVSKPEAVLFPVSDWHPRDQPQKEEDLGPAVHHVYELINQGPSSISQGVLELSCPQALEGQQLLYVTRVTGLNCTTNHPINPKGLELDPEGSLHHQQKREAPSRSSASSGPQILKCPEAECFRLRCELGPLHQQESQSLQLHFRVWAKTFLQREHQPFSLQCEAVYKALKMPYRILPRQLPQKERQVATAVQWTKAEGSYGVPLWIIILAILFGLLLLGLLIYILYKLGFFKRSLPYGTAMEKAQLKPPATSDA
integrin α5β1, sequence (P05556 21-798): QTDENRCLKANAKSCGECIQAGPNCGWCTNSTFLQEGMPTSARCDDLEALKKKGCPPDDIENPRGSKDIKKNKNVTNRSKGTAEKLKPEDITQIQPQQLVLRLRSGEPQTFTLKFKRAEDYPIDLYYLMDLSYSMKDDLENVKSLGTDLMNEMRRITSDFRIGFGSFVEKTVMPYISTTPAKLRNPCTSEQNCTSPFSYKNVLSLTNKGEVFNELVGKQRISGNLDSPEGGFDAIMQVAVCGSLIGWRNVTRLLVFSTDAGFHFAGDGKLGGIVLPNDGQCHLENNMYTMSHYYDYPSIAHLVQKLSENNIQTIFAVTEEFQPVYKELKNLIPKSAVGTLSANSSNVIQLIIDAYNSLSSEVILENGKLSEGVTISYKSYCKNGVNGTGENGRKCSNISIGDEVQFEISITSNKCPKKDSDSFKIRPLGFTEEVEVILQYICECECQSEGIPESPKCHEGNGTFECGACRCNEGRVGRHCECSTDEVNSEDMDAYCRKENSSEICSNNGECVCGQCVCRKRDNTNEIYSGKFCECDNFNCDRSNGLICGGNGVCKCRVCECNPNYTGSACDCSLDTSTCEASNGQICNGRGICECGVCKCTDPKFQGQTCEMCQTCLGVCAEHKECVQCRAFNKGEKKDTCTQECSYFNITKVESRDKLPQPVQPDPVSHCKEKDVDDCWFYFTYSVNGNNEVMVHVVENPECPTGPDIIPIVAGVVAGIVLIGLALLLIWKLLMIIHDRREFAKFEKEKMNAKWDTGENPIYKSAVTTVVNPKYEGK

HeLa cells = assay: Cytotoxicity by MTT assay, HeLa; conditions: HeLa (integrin αvβ3-negative), 0–40 μM, 36 h
LO2 cells = assay: Cytotoxicity by MTT assay, LO2; conditions: LO2 normal cells, 0–40 μM, 36 h
A549 cells = assay: Cytotoxicity by MTT assay, A549; conditions: A549 (integrin αvβ3-positive), 0–40 μM, 36 h
U87MG cells = assay: Cytotoxicity by MTT assay, U87MG; conditions: U87MG (integrin αvβ3-positive), 0–40 μM, 36 h
MIHA cells = assay: Cytotoxicity by MTT assay, MIHA; conditions: MIHA normal cells, 0–40 μM, 36 h
MCF-7 cells = assay: Cytotoxicity by MTT assay, MCF-7; conditions: MCF-7 (integrin αvβ3-negative), 0–40 μM, 36 h

`COC(=O)[C@@H]1Cc2cn(C(=O)C(C)(C)C)c3c(cccc23)C2=CC(=O)N(CCCCCC(=O)NC3(CCCC3)C(=O)N1)C2=O` showed a ring closure, isolated yield ([1]; from COC(=O)[C@H](Cc1cn(C(=O)C(C)(C)C)c2ccccc12)NC(=O)C1(NC(=O)CCCCCN2C(=O)C=CC2=O)CCCC1, 20-membered ring) of 0%.

Compound `COC(=O)[C@@H]1Cc2cn(C(=O)C(C)(C)C)c3c(cccc23)C2=CC(=O)N(CCCC[C@H](NC(=O)OC(C)(C)C)C(=O)N[C@@H](CCCNC(=N)NS(=O)(=O)c3c(C)c(C)c4c(c3C)CC(C)(C)O4)C(=O)NCC(=O)N[C@@H](CC(=O)OC(C)(C)C)C(=O)NCC(=O)N1)C2=O` has a ring closure, isolated yield ([1]; from COC(=O)[C@H](Cc1cn(C(=O)C(C)(C)C)c2ccccc12)NC(=O)CNC(=O)[C@H](CC(=O)OC(C)(C)C)NC(=O)CNC(=O)[C@H](CCCNC(=N)NS(=O)(=O)c1c(C)c(C)c2c(c1C)CC(C)(C)O2)NC(=O)[C@H](CCCCN1C(=O)C=CC1=O)NC(=O)OC(C)(C)C, 29-membered ring) of 32%.

For `COC(=O)[C@@H]1Cc2cn(C(=O)C(C)(C)C)c3c(cccc23)C2=CC(=O)N(CCC(=O)N[C@@H](CC(=O)OC(C)(C)C)C(=O)N[C@@H](C)C(=O)N[C@@H](C(C)C)C(=O)NCC(=O)N1)C2=O` [3-maleimidopropionyl-Asp(OtBu)-Ala-Val-Gly-Trp(Piv)-OMe], the ring closure, isolated yield ([1]; from COC(=O)[C@H](Cc1cn(C(=O)C(C)(C)C)c2ccccc12)NC(=O)CNC(=O)[C@@H](NC(=O)[C@H](C)NC(=O)[C@H](CC(=O)OC(C)(C)C)NC(=O)CCN1C(=O)C=CC1=O)C(C)C, 26-membered ring) was 43%.

Compound `CC[C@H](C)[C@@H]1NC(=O)[C@H](Cc2ccccc2)NC(=O)[C@H](CCC(=O)OC(C)(C)C)NC(=O)CCN2C(=O)C=C(C2=O)c2cccc3c(cn(C(=O)C(C)(C)C)c23)C[C@@H](C(=O)OC)NC(=O)CNC1=O` [3-maleimidopropionyl-Glu(OtBu)-Phe-Ile-Gly-Trp(Piv)-OMe] has a ring closure, isolated yield ([1]; from CC[C@H](C)[C@H](NC(=O)[C@H](Cc1ccccc1)NC(=O)[C@H](CCC(=O)OC(C)(C)C)NC(=O)CCN1C(=O)C=CC1=O)C(=O)NCC(=O)N[C@@H](Cc1cn(C(=O)C(C)(C)C)c2ccccc12)C(=O)OC, 26-membered ring) of 35%.

Compound `COC(=O)[C@@H]1Cc2cn(C(=O)C(C)(C)C)c3c(cccc23)C2=CC(=O)N(CCCCCC(=O)N[C@@H](C)C(=O)NCC(=O)N1)C2=O` [6-maleimidohexanoyl-Ala-Gly-Trp(Piv)-OMe] has a ring closure, isolated yield ([1]; from COC(=O)[C@H](Cc1cn(C(=O)C(C)(C)C)c2ccccc12)NC(=O)CNC(=O)[C@H](C)NC(=O)CCCCCN1C(=O)C=CC1=O, 23-membered ring) of 15%.

With `COC(=O)[C@@H]1Cc2c[nH]c3c(cccc23)C2=CC(=O)N(CCCC[C@H](N)C(=O)N[C@@H](CCCNC(=N)N)C(=O)NCC(=O)N[C@@H](CC(=O)O)C(=O)NCC(=O)N1)C2=O` [10a] the Kd (integrin αvβ3) was 0.675 µM, the kon (integrin αvβ3) was 42300 M⁻¹ s⁻¹ and the Kd (integrin αvβ5) was 6.13 µM. It also gave a kon (integrin αvβ5) of 12500 M⁻¹ s⁻¹, a Kd (integrin α5β1) of 8.36 µM and a kon (integrin α5β1) of 15300 M⁻¹ s⁻¹.

Compound `N=C(N)NCCC[C@@H]1NC(=O)[C@H](CCCCNC(=S)Nc2ccc3c(c2)C(=O)OC32c3ccc(O)cc3Oc3cc(O)ccc32)NC(=O)[C@@H](Cc2ccccc2)NC(=O)[C@H](CC(=O)O)NC(=O)CNC1=O` [10c, cyclo-(RGDfK (FITC)), reference compound] has a Kd (integrin αvβ3) of 65.5 µM, a kon (integrin αvβ3) of 10300 M⁻¹ s⁻¹ and a Kd (integrin αvβ5) of 4.13 µM. It also gave a kon (integrin αvβ5) of 23400 M⁻¹ s⁻¹, a Kd (integrin α5β1) of 2.76 µM and a kon (integrin α5β1) of 25400 M⁻¹ s⁻¹.

In the case of `COC(=O)[C@@H]1Cc2cn(C(=O)C(C)(C)C)c3c(cccc23)C2=CC(=O)N(CCCCCCCCCCC(=O)NCC(=O)NCC(=O)N1)C2=O` [11-maleimidoundecanoyl-Gly-Gly-Trp(Piv)-OMe], the ring closure, isolated yield ([1]; from COC(=O)[C@H](Cc1cn(C(=O)C(C)(C)C)c2ccccc12)NC(=O)CNC(=O)CNC(=O)CCCCCCCCCCN1C(=O)C=CC1=O, 28-membered ring) is reported as 38%.

In the case of `COC(=O)[C@@H]1Cc2cn(C(=O)C(C)(C)C)c3c(cccc23)C2=CC(=O)N(CCCCCCCCCCC(=O)N1)C2=O` [11-maleimidoundecanoyl-Trp(Piv)-OMe], the ring closure, isolated yield ([1]; from COC(=O)[C@H](Cc1cn(C(=O)C(C)(C)C)c2ccccc12)NC(=O)CCCCCCCCCCN1C(=O)C=CC1=O, 22-membered ring) is reported as 22%.

`COC(=O)[C@@H]1Cc2cn(C(=O)C(C)(C)C)c3c(cccc23)C2=CC(=O)N(CCCC[C@H](NC(=O)OC(C)(C)C)C(=O)N[C@@H](C)C(=O)N[C@@H](Cc3ccccc3)C(=O)N[C@@H](CC(C)C)C(=O)NCC(=O)N1)C2=O` [Boc-Lys(Nε-maleimide)-Ala-Phe-Leu-Gly-Trp(Piv)-OMe] gave a ring closure, isolated yield ([1]; from COC(=O)[C@H](Cc1cn(C(=O)C(C)(C)C)c2ccccc12)NC(=O)CNC(=O)[C@H](CC(C)C)NC(=O)[C@H](Cc1ccccc1)NC(=O)[C@H](C)NC(=O)[C@H](CCCCN1C(=O)C=CC1=O)NC(=O)OC(C)(C)C, 29-membered ring) of 35%.

`CC[C@H](C)[C@@H]1NC(=O)[C@@H](NC(=O)OC(C)(C)C)CCCCN2C(=O)C=C(C2=O)c2cccc3c(cn(C(=O)C(C)(C)C)c23)C[C@@H](C(=O)N[C@H](C(=O)OC)[C@@H](C)CC)NC(=O)CNC(=O)[C@H](C)NC1=O` [Boc-Lys(Nε-maleimide)-Ile-Ala-Gly-Trp(Piv)-Ile-OMe] gave a ring closure, isolated yield ([1]; from CC[C@H](C)[C@H](NC(=O)[C@H](CCCCN1C(=O)C=CC1=O)NC(=O)OC(C)(C)C)C(=O)N[C@@H](C)C(=O)NCC(=O)N[C@@H](Cc1cn(C(=O)C(C)(C)C)c2ccccc12)C(=O)N[C@H](C(=O)OC)[C@@H](C)CC, 26-membered ring) of 32%.

In the case of `COC(=O)[C@@H]1Cc2cn(C(=O)C(C)(C)C)c3c(cccc23)C2=CC(=O)N(CCCC[C@H](NC(=O)OC(C)(C)C)C(=O)N1)C2=O` [Boc-Lys(Nε-maleimide)-Trp(Piv)-OMe], the ring closure, isolated yield ([1]; from COC(=O)[C@H](Cc1cn(C(=O)C(C)(C)C)c2ccccc12)NC(=O)[C@H](CCCCN1C(=O)C=CC1=O)NC(=O)OC(C)(C)C, 17-membered ring) is reported as 0%.

With `COC(=O)[C@@H]1Cc2cn(C(=O)C(C)(C)C)c3c(cccc23)C2=CC(=O)N(CCCC[C@H](NC(=O)OC(C)(C)C)C(=O)N[C@@H](C(C)C)C(=O)N[C@@H](Cc3ccccc3)C(=O)NCC(=O)N1)C2=O` [Boc-Lys(Nε-maleimide)-Val-Phe-Gly-Trp(Piv)-OMe] the ring closure, isolated yield ([1]; from COC(=O)[C@H](Cc1cn(C(=O)C(C)(C)C)c2ccccc12)NC(=O)CNC(=O)[C@H](Cc1ccccc1)NC(=O)[C@@H](NC(=O)[C@H](CCCCN1C(=O)C=CC1=O)NC(=O)OC(C)(C)C)C(C)C, 26-membered ring) was 39%.

`CC[C@H](C)[C@@H]1NC(=O)[C@H](C(C)(C)C)NC(=O)[C@@H](NC(=O)OC(C)(C)C)Cc2cn(C(=O)C(C)(C)C)c3c(cccc23)C2=CC(=O)N(CCCC[C@@H](C(=O)OC)NC(=O)CNC1=O)C2=O` [Boc-Trp(Piv)-Tle-Ile-Gly-Lys(Nε-maleimide)-OMe] gave a ring closure, isolated yield ([1]; from CC[C@H](C)[C@H](NC(=O)[C@@H](NC(=O)[C@H](Cc1cn(C(=O)C(C)(C)C)c2ccccc12)NC(=O)OC(C)(C)C)C(C)(C)C)C(=O)NCC(=O)N[C@@H](CCCCN1C(=O)C=CC1=O)C(=O)OC, 26-membered ring) of 34%.

For `COC(=O)[C@@H]1Cc2c[nH]c3c(cccc23)C2C(=O)N(CCCC[C@H](N)C(=O)N[C@@H](CCCNC(=N)N)C(=O)NCC(=O)N[C@@H](CC(=O)O)C(=O)NCC(=O)N1)C(=O)C2SCCC(=O)NCC(=O)N[C@@H](Cc1ccccc1)C(=O)N[C@@H](CC(C)C)C(=O)NCC(=O)N[C@H]1C[C@H](O[C@H]2C[C@](O)(C(=O)CO)Cc3c(O)c4c(c(O)c32)C(=O)c2c(OC)cccc2C4=O)O[C@@H](C)[C@H]1O` (stereo partly drawn) [RGD-GFLG-DOX], the “cytotoxicity (in words)” value (HeLa cells) was “lower cytotoxicity”, the “cytotoxicity (in words)” value (LO2 cells) was “lower cytotoxicity” and the “cytotoxicity (in words)” value (A549 cells) was “stronger cytotoxicity than DOX”. The “cytotoxicity (in words)” value (U87MG cells) was “stronger cytotoxicity than DOX”, the “cytotoxicity (in words)” value (MIHA cells) was “lower cytotoxicity” and the “cytotoxicity (in words)” value (MCF-7 cells) was “lower cytotoxicity”.
